Data: EP4610269A1, “UROKINASE PLASMINOGEN ACTIVATOR SURFACE RECEPTOR (UPAR) LIGANDS FOR DIAGNOSTIC OR THERAPEUTIC USE” (3B Pharmaceuticals GmbH, priority 2024, dated 2025)
Read-outs that look alike come from different tables or passages of the source. Where a SMILES comes first, the peptide text is derived from it. Bridges are numbered along the chain shown (N, C = ends). [ ]: non-standard residue; d: D form. The star is where a group is joined. DOTA = O=C(O)CN1CCN(CC(=O)O)CCN(CC(=O)*)CCN(CC(=O)O)CC1; Pro(cis-4-F) = O=C(O)[C@@H]1C[C@H](F)CN1; Propanoyl(3-NMe2) = CN(C)CCC(=O)*; Ala(cPr) = N[C@@H](CC1CC1)C(=O)O; Hyp = O=C(O)[C@@H]1C[C@@H](O)CN1; Pentanoyl(4-Me) = CC(C)CCC(=O)*; Cit = NC(=O)NCCC[C@H](N)C(=O)O; Butoxycarbonyl = CCCCOC(=O)*; Nle = CCCC[C@H](N)C(=O)O; Nva = CCC[C@H](N)C(=O)O; Pentanoyl = CCCCC(=O)*; βAla = NCCC(=O)O

Tests used:
[1] = molecular target: T1, human uPAR (uPAR-Fc) (Homo sapiens, UniProt Q03405); test: Surface plasmon resonance (SPR) assay, single cycle kinetics; type: binding; conditions: pKD category for uPAR SPR activity assay, uPAR-Fc on Protein A-Chip, 25°C, read-out: pKD CAT (converted)
T1 construct: comprising amino acids Leu23-Arg303 according to UniProt entry Q03405.1; purchased R&D Systems 10378-UK-100
T1 sequence (Q03405 23-303): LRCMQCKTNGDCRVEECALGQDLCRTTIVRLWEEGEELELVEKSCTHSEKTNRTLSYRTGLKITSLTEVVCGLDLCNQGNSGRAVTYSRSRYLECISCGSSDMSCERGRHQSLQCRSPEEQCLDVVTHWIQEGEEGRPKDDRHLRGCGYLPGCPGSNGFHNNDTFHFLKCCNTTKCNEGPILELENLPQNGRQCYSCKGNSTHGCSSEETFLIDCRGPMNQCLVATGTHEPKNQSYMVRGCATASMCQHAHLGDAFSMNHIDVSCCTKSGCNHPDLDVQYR
Experimental: Surface plasmon resonance (SPR) is an optical technique used to measure molecular interactions in real time. SPR occur when plane-polarized light hits a metal film under total internal reflection conditions. SPR signal is directly dependent on the refractive index of the medium on the sensor chip. In an SPR experiment, one molecule (i.e. uPAR) is immobilized on a sensor chip and binding to a second molecule (i.e. test compounds) is measured under flow. The binding of the compound on the surface changes the refractive index. In responses the reflection angle changes as compounds bind and dissociate on the immobilized protein on the surface. This response is measured in resonance units (RU). The RUs are proportional to the number of molecules bound to the surface. […] Kinetic binding constants and equilibrium binding constants can be derived from the sensorgrams.
Surface plasmon resonance (SPR) studies were performed using a Biacore™ T200 or S200 SPR system (Cytiva, formerly GE Life Sciences) to assess binding of compounds to recombinant uPAR protein.
In this example recombinant protein comprising the extracellular domains of human uPAR (uPAR-Fc, R&D Systems, CAT 10378-UK-100, comprising amino acids Leu23-Arg303 according to UniProt entry Q03405.1 and Fc region of human IgG1 at the C-terminus) was immobilized on a Protein A-Chip (Cytiva, CAT 29127555) according to the supplier's instructions. uPAR-Fc was diluted in Running Buffer (10 mM HEPES, 150 mM NaCl, 50 µM EDTA, 0.1% DMSO, 0.05% Tween-20, pH 7.4) to a final concentration of 100 nM and then flushed over the Protein A-Chip to immobilized ~2000 RUs.
Stock solutions of test compounds were prepared by dissolving each compound in DMSO. DMSO stock solution were diluted 1: 1000 in Running Buffer without DMSO. Further sequential dilutions were made with Running Buffer containing 0.1% DMSO. SPR binding analyses were performed in Single Cycle Kinetic (SCK) mode at 25°C. Flow cell without immobilized uPAR-Fc served as reference flow cell. The chip was regenerated with 10 mM Glycine, pH 1,5 to remove the uPAR-Fc from the chip surface after each SCK run. After every three SCK measurements, a blank run with Running Buffer instead of test compound was included to correct for baseline drifts (double reference substraction method). Table 11: SPR protocol steps for SCK with uPAR-Fc immobilized on a Protein A-Chip.
For each test compound, SPR raw data sensorgrams were recorded using the Biacore™ T200 or S200 control software. Sensorgrams were processed and analyzed with the Biacore™ Insight Evaluation software. […] The reference subtracted sensorgram for each test compound was further corrected for baseline drift by subtracting the sensorgram of a reference subtracted blank run (Running Buffer only). The dissociation constant (KD) was calculated from the double reference subtracted sensorgrams using the 1:1 Langmuir binding model. The pKD value (negative decadic logarithm of dissociation constant) was calculated using Microsoft Excel.

[2] = molecular target: T2, uPAR-expressing HEC-265 human endometrial adenocarcinoma cells (Homo sapiens, UniProt Q03405); test: Competitive FACS binding assay; conditions: pIC50 category of FACS binding
T2 construct: Cell surface uPAR-expressing HEC-265 human endometrial adenocarcinoma cells; host or cells: HEC-265
T2 sequence (Q03405 23-335): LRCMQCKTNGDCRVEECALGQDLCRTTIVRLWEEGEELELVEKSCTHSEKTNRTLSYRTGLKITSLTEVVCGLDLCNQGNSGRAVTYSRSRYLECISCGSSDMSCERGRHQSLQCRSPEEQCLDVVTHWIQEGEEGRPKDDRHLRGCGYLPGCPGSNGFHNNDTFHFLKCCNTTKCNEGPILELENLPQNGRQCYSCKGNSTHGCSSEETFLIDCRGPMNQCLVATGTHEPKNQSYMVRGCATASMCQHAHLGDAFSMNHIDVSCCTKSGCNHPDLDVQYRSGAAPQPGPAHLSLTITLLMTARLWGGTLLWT
Experimental: In order to determine binding of compounds according to the present invention to uPAR-expressing cells, a competitive FACS binding assay was established.
Cell surface uPAR-expressing HEC-265 human endometrial adenocarcinoma cells (Japanese Collection of Research Bioresources, #JCRB1142) were cultured in MEM Eagle with stable glutamine (Pan Biotech, #P04-09500) including 15% fetal bovine serum (Pan Biotech, #P30-3306) and 100 U/ml penicillin and 100 µg/mL streptomycin (Pan Biotech, #P06-07100). Cells were detached with Cell Dissociation Buffer (Thermo Scientific, #13151014) and washed in FACS buffer (PBS (Pan Biotech, #P04-36500) including 1% BSA (SeraCare, #AP-4510-80). Cells were diluted in FACS buffer to a final concentration of 500.000 cells per ml and 200 µl of the cell suspension are transferred to a u-shaped non-binding 96-well plate (Greiner Bio-One, #650901).
For IC50 determination, cells were incubated with 10 nM Bio--Ttds--Ttds--Ttds--Ttds-D-Cha-FsrYLWS-NH2) in the presence of increasing concentrations of non-labeled test compounds at 4°C for 1 hour. Cells were washed twice in FACS buffer. An additional incubation step with 1 µg/mL APC-Streptavidin (Miltenyi; #130-106-791) in 50 µL FACS buffer for 30 minutes on ice was performed followed by two washes with FACS buffer. Cells were resuspended in 200 µl FACS buffer and analyzed in an Attune NxT flow cytometer. Median fluorescence intensities (APC channel) were calculated by Attune NxT software and plotted against peptide concentrations. Four parameter logistic (4PL) curve fitting and pIC50 calculations were performed using ActivityBase software.

Kd ([1]; single cycle kinetics) [nM]	IC50 [2] [nM]	Kd [1] [nM]	Compound
< 1.58	≤ 10	–	CCCCC(=O)N[C@H]1CSSC[C@@H](C(N)=O)NC(=O)[C@H](CC2CC2)NC(=O)[C@H]([C@@H](C)CC)NC(=O)[C@@H]2C[C@@H](O)CN2C(=O)[C@@H]2CCCN2C(=O)[C@H](Cc2ccccc2)NC(=O)[C@H](Cc2ccc(O)cc2)NC(=O)[C@H](CCC(N)=O)NC(=O)[C@H](CCCNC(=N)N)NC1=O [UPAR-379, Pent-[Cys-Arg-Gln-Tyr-Phe-Pro-Hyp-Ile-Cpra-Cys]-NHz] (Pentanoyl-CRQYFP[Hyp]I[Ala(cPr)]C-NH2; disulfide 1-10)
< 1.58	≤ 10	–	CCCC[C@@H]1NC(=O)[C@H](CCCNC(=N)N)NC(=O)[C@@H](NC(=O)[C@H](CC(C)C)NC(=O)[C@H](CC(=O)O)NC(C)=O)CSSC[C@@H](C(N)=O)NC(=O)[C@H](CC(C)C)NC(=O)[C@H]([C@@H](C)CC)NC(=O)[C@@H]2CCCN2C(=O)[C@@H]2CCCN2C(=O)[C@H](Cc2ccccc2)NC(=O)[C@H](Cc2ccc(O)cc2)NC1=O [UPAR-431, Ac-Asp-Leu-[Cys-Arg-Nle-Tyr-Phe-Pro-Pro-Ile-Leu-Cys]-NH2] (Ac-DLCR[Nle]YFPPILC-NH2; disulfide 3-12)

Further lines, the molecule ahead of its results:

Compound	Kd ([1]; single cycle kinetics) [nM]	IC50 [2] [nM]	Kd [1] [nM]
CC[C@H](C)[C@@H]1NC(=O)[C@@H](C)NC(=O)[C@@H]2CCCN2C(=O)[C@H](Cc2ccccc2)NC(=O)[C@H](Cc2ccc(O)cc2)NC(=O)[C@H](CCC(N)=O)NC(=O)[C@H](CCCNC(N)=O)NC(=O)[C@@H](NC(=O)CCN(C)C)CSSC[C@@H](C(N)=O)NC(=O)[C@H](CC(C)C)NC1=O [UPAR-333, Dmba-[Cys-Cit-Gln-Tyr-Phe-Pro-ala-Ile-Leu-Cys]-NH2] ({Propanoyl(3-NMe2)}-C[Cit]QYFP[dA]ILC-NH2; disulfide 1-10)	–	39.8 to 100	> 100
CC[C@H](C)[C@@H]1NC(=O)[C@@H](C)NC(=O)[C@@H]2CCCN2C(=O)[C@H](Cc2ccccc2)NC(=O)[C@H](C)NC(=O)[C@H](CCC(N)=O)NC(=O)[C@H](CCCNC(N)=O)NC(=O)[C@@H](NC(=O)CCC(C)C)CSSC[C@@H](C(N)=O)NC(=O)[C@H](CC(C)C)NC1=O [UPAR-159, iHex-[Cys-Cit-Gln-Ala-Phe-Pro-ala-Ile-Leu-Cys]-NH2] ({Pentanoyl(4-Me)}-C[Cit]QAFP[dA]ILC-NH2; disulfide 1-10)	–	≥ 126	> 100
CCCCOC(=O)N[C@H]1CSSC[C@@H](C(=O)NCCC(=O)O)NC(=O)[C@H](CCC)NC(=O)[C@H]([C@@H](C)CC)NC(=O)[C@@H]2C[C@@H](O)CN2C(=O)[C@@H]2C[C@H](F)CN2C(=O)[C@H](Cc2ccccc2)NC(=O)[C@H](Cc2ccc(O)cc2)NC(=O)[C@H](CCCCNC(=O)CN2CCN(CC(=O)O)CCN(CC(=O)O)CCN(CC(=O)O)CC2)NC(=O)[C@H]([C@@H](C)O)NC1=O [UPAR-127, Butoc-[Cys-Thr-Lys(DOTA)-Tyr-Phe-4Cfp-Hyp-Ile-Nva-Cys]-Bal-OH] (Butoxycarbonyl-CTK(DOTA)YF[Pro(cis-4-F)][Hyp]I[Nva]C[βAla]-OH; disulfide 1-10)	–	≤ 10	1.58 to 10
